Measured values from patent publication US10392643B2, “Methods of using acyl-CoA synthetase for biosynthetic production of acyl-CoAs” (Conagen Inc., priority 2013, dated 2019).

Test system: ghost pepper ACS1
Experiment: HPLC-based method to measure the activity of ghost pepper ACS1 against carboxylic acids
Format: biochemical, ghost chili pepper
Conditions: for ACS1 activity with 8-methyl-trans-6-nonenoic acid or 8-methylnonanoic acid as a substrate (FIG. 9): HPLC profiles of enzymatic products, 6E compared with 8M; for activities of ACS1 against various carboxylic acids (FIG. 8): 200 μM carboxylic acids as substrate, 30 min, acyl-CoA formation by HPLC at 257 nm, 100 mM Tri buffer, pH8.0 (FIG. 8 legend)
Method: C2, acetic acid; C4, butyric acid; C6, hexanoic acid, C8,caprylic acid; C10, capric acid; C12, lauric acid; C14, myristic acid; C16, palmitic acid; C18, stearic acid. The assay was performed in 100 mM Tri buffer, pH8.0.
Applicants used an HPLC-based method to measure the activity of ghost pepper ACS1 (Chen et al., 2011). Briefly, reaction mixtures (400 μL) contained 0.1 M Tris-HCl, […], 2 mM DTT, 5 mM ATP, 10 mM MgCl2, 0.5 mM CoA, 0.1% Triton and 200 μM carboxylic acids. The reaction was initiated by adding 20 μl of purified enzyme and stopped after 30 min by addition of 20 μl al acetic acid. HPLC was performed with Dionex-UltiMate® 3000 LC Systems (Thermo Scientific) using an Acclaim® 120 C18 reversed-phase column (Thermo Scientific; 3 μ, 120 Å, 150×3 mm). The mobile phase consisted of solvent A (0.1% trifluoroacetic acid) and solvent B (acetonitrile). The gradient elution procedure was as follows: 0 to 5 min, 5% of B; 5 to 9 min, a linear gradient from 5 to 80% of B; 9 to 11 min, 80% of B; 11 to 12 min, 5% of B. The flow rate was 0.6 ml/min. The diode array detector collected data in the 200- to 400-nm range. For detection and quantification of substrate and products, peak areas were measured at 257 nm.

SMILES	ACS1 activity with 8-methyl-trans-6-nonenoic acid or 8-methylnonanoic acid as a substrate (FIG. 9)	activities of ACS1 against various carboxylic acids (FIG. 8)
CC(C)/C=C/CCCCC(=O)O [6E, 8-methyl-trans-6-nonenoic acid]	higher activity	–
CC(C)CCCCCCC(=O)O [8M, 8-methylnonanoic acid]	showed activities	–
CC(=O)O [acetic acid]	–	did not show any activity
CCCC(=O)O [butyric acid]	–	did not show any activity
CCCCCCCCCC(=O)O [capric acid]	–	highest activity
